The text below walks through data of patent US6913708B2, “Cholesteric liquid crystal drying process and solvent” (3M Innovative Properties Company, priority 2003, dated 2005).

The nature of this series: Solubility of cholesteric liquid crystal monomer in hot (boiling) solvents. Format: physicochemical. As to the method: Comparison of the Solubility of Various Monomers in 1,3-dioxolane and other Solvents.
4-(2-Acryloyloxy-ethoxy)-benzoic acid 4′-cyano-biphenyl-4-yl ester is a cholesteric liquid crystal monomer with the structure given below and can be prepared as described in European Patent Application Publication No. 834754, incorporated herein by reference. [drawing 2]
4-(2-Acryloyloxy-ethoxy)-benzoic acid 4′-cyano-biphenyl-4-yl ester was dissolved in hot (boiling) tetrahydrofuran and hot 1,3-dioxolane. Only 20% of the monomer dissolved in the tetrahydrofuran, while 40% dissolved in the 1,3-dioxolane.

For `C=CC(=O)OCCOc1ccc(C(=O)Oc2ccc(-c3ccc(C#N)cc3)cc2)cc1` [4-(2-Acryloyloxy-ethoxy)-benzoic acid 4′-cyano-biphenyl-4-yl ester], the “fraction of the monomer dissolved” value reads like this: (hot 1,3-dioxolane) 40%; (hot (boiling) tetrahydrofuran) 20%.
